Results taken from PMC8053108, “RPA2 winged-helix domain facilitates UNG-mediated removal of uracil from ssDNA; implications for repair of mutagenic uracil at the replication fork” (Nucleic Acids Research, 2021).

System: UNG2 or N-terminally truncated versions
Assay: Uracil excision in presence of increasing amounts of purified free WH domain
Assay type: biochemical, human
Details: 0.4 nM enzyme, 0-50 μM purified WH domain, 100 nM DNA
Method: 3′-FAM-labelled, PAGE-purified oligonucleotide substrates were from Sigma-Aldrich. Unless otherwise indicated, the substrate (25 nt) harboured uracil at position 10 in a polyC sequence to avoid secondary structures (U10-25*: […]-FAM). Double-stranded substrate was generated by annealing (heating followed by slow cooling) U10-25* to a non-labelled complementary oligo (A16-25: […]). All assays were performed at 22°C in 10 mM Tris–HCl pH 7.5, 50 mM NaCl, 1 mM DTT, 0.1 mM EDTA, 0.5 mg/ml BSA.
Varying amounts of UNG were then added, and the mixtures incubated for 10 min in a water bath. To avoid unspecific interactions and binding of enzyme and DNA to the assay tube surface, low-DNA binding tubes and excess of BSA was used in all reactions. Reactions were quenched and AP sites cleaved in 10% piperidine at 90°C for 20 min. Samples were dried by vacuum centrifugation and suspended in formamide-containing loading buffer. Product and substrate were separated in 12% PAGE/7M urea–0.5× TBE gels, bands visualised in ChemiDoc™ Imager (Bio-Rad) and quantified by Image Lab software (Bio-Rad). Importantly, all assays in which two parameters were compared (e.g. RPA-coated versus naked substrate or WT versus mutated protein) were performed in parallel with the exact same DNA/protein dilutions.

WH domain: purified RPA2-WH domain, RPA2 residues 172-270
effect on uracil excision from naked ss- and dsDNA substrates: little effect | effect on uracil excision from RPA-bound ss- and dsDNA substrates (RPA-bound): markedly reduced
